Read-outs that look alike come from different tables or passages of the source.

For one data set, the system named is Jurkat cell line. The data set is described as follows: in vitro toxicity study, cytotoxicity (Jurkat cell). The data set is classed as cell-based.
Data set [1] deals with human peripheral blood lymphocyte (PBL) proliferation. The data set is classed as cell-based.

In the case of `Cn1cc[n+]([Ru-3]([n+]2ccn(C)c2)([n+]2ccn(C)c2)([n+]2ccn(C)c2)([n+]2ccn(C)c2)[n+]2ccn(C)c2)c1.F[P-](F)(F)(F)(F)F.F[P-](F)(F)(F)(F)F.F[P-](F)(F)(F)(F)F` [Ru(1-MeIm)6 !(PF6)3], the “Cytotoxicity (Jurkat cell) IC50” value with Jurkat cell line amounted to 115 µg/mL. Further, in data set [1], the concentration for half-maximal inhibition (IC50) (in general, the concentration needed to halve the response being measured) worked out at 0.19 ± 0.16 µg/mL.

As for `Cn1cc[n+]([Ru-3]([n+]2ccn(C)c2)([n+]2ccn(C)c2)([n+]2ccn(C)c2)([n+]2ccn(C)c2)[n+]2ccn(C)c2)c1.[Cl-].[Cl-].[Cl-]` [Ru(1-MeIm)6 !Cl3], the “Cytotoxicity (Jurkat cell) IC50” value with Jurkat cell line was > 300 µg/mL. Further, in data set [1], the IC50 was found to be 0.12 ± 0.1 µg/mL.

Consider Ru(4-MeIm)6 !Cl2, for which, in the data set on Jurkat cell line (values are extrapolated), the “Cytotoxicity (Jurkat cell) IC50” value is 1040 µg/mL. Further, the IC50 in data set [1] turned out to be 0.09 ± 0.07 µg/mL.

Regarding `Cn1cc[n+]([Ru-4]([n+]2ccn(C)c2)([n+]2ccn(C)c2)([n+]2ccn(C)c2)([n+]2ccn(C)c2)[n+]2ccn(C)c2)c1.[Cl-].[Cl-]` [Ru(1-MeIm)6 !Cl2], the “Cytotoxicity (Jurkat cell) IC50” value in the data set on Jurkat cell line came out at 2000 µg/mL. The same compound yielded a 50% inhibitory concentration (IC50) in data set [1] of 0.052 ± 0.03 µg/mL.

Consider `[Cl-].[Cl-].c1c[n+]([Ru-4]([n+]2cc[nH]c2)([n+]2cc[nH]c2)([n+]2cc[nH]c2)([n+]2cc[nH]c2)[n+]2cc[nH]c2)c[nH]1` [Ru(Im)6 !Cl2], for which the “Cytotoxicity (Jurkat cell) IC50” value in the data set on Jurkat cell line was determined as 200 µg/mL. In data set [1], the IC50 turned out to be 0.0067 ± 0.003 µg/mL.

On to `[Cl-].[Cl-].[Cl-].c1c[n+]([Ru-3]([n+]2cc[nH]c2)([n+]2cc[nH]c2)([n+]2cc[nH]c2)([n+]2cc[nH]c2)[n+]2cc[nH]c2)c[nH]1` [Ru(Im)6 !Cl3], for which the “Cytotoxicity (Jurkat cell) IC50” value in the data set with Jurkat cell line (values are extrapolated) was 530 µg/mL. This compound also registered an IC50 in data set [1] of 0.005 ± 0.004 µg/mL.

Source of the values: US5512687A, “Compounds for inhibiting immune response” (Procept, Inc., priority 1994, dated 1996).
